Results from patent US11779572B1, “Methods of treating gastrointestinal stromal tumors” (Deciphera Pharmaceuticals, LLC, priority 2022, dated 2023).

Tests used:
[1] = Unbound fraction / plasma protein binding; assay type: in vitro ADME, human; settings: human, plasma, oral, 50 mg, healthy participants and participants with hepatic impairment; clinical samples; read-out: mean unbound fraction fu %
Text: (§1) Both ripretinib and DP-5439 display high binding to plasma proteins in vitro; therefore, clinical samples were collected to investigate the effect of HI on the unbound fraction (fu) % for both analytes. Distributions of individual mean fu % for both ripretinib and DP-5439 show high variability between participants. The ripretinib mean fu % was ≤0.6% in healthy participants and in participants with hepatic impairment. The DP-5439 fu % was ≤0.5% in healthy participants and 0.2% to 1.4% in participants with hepatic impairment. No clear trend could be established between unbound ripretinib and DP-5439 PK parameters and the degrees of HI.

plasma proteins = assay: Unbound fraction / plasma protein binding; assay type: in vitro ADME, human
Text: as §1

CYP3A4 = CYP3A4 (Homo sapiens, UniProt P08684); assay: Contribution of CYP enzymes to metabolism, in vitro data; assay type: in vitro ADME; settings: base model, based on in vitro data
Chain of CYP3A4 (P08684 whole entry): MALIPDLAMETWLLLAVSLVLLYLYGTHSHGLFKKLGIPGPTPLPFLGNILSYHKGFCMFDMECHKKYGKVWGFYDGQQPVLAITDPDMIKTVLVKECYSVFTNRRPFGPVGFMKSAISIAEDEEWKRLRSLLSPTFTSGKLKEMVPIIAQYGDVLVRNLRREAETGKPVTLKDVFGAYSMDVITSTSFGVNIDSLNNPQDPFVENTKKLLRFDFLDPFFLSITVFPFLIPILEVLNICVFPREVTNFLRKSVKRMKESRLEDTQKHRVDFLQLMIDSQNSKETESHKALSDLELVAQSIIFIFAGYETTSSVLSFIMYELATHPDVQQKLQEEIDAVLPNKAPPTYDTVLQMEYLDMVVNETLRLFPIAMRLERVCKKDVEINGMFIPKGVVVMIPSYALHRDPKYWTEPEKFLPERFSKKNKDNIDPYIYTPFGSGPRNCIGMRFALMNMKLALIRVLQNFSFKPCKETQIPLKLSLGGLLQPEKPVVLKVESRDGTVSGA
Text: A PBPK model that included a mechanistic absorption model was developed.

[2] = tested on: patients with advanced GIST; assay: Example 1 study: patient reported outcomes (EQ-5D-5L VAS, EORTC QLQ-C30); assay type: in vivo, human; settings: 150 mg QD
Method: Patient reported outcomes were assessed by EQ-5D-5L, which provides a visual analogue scale (VAS), and EORTC QLQ-C30, which provides physical function and role function scales. The EQ-5D-5L VAS (or EQ-VAS) records the respondent's overall current health on a vertical visual analogue scale and provides a quantitative measure of the patient's perception of overall health. These patient outcomes were reported across 28-day cycles of receiving 150 mg QD ripretinib or placebo.
The EORTC QLQ-C30 is an assessment of function and symptoms of therapy by cancer patient, and is not specific to any cancer. The EORTC QLQ-C30 is a 30-question plus one global health status, including 5 functional scales, 3 symptom scales and a global health status.

[3] = Observed clinical PK after single and multiple doses; assay type: in vivo; settings: human, plasma, oral; SD administration, healthy participants
Method: CYP3A4 inactivation parameters and induction parameters were subsequently incorporated in the model to assess the net effect on drug clearance at steady state. Due to the uncertainty in the in vitro CYP3A4 MBI data and CYP3A4 induction data, a series of sensitivity analysis was performed. […] Therefore, the in vitro CYP3A4 interaction data were used in the final model. The simulated profiles of ripretinib and DP-5439 in virtual participants were compared to the clinical data. […] The predicted mean AUC0-12 values for DP-5439 on Day 1 were within 2-fold (majority within 1.5-fold) of the observed values, except for the 250-mg QD dose. The mean AUC0-12 and Cmax values for DP-5439 on Day 15 were under-predicted. […] For example, the reported AUCs for ripretinib and DP-5439 at the 150-mg QD dose level were 1.66 and 5.29, respectively. […] The mechanisms for the accumulation of DP-5439 were unclear.

Compound: CCn1c(=O)c(-c2cc(NC(=O)Nc3ccccc3)c(F)cc2Br)cc2cnc(NC)cc21 [ripretinib]
- fraction unbound [1]: ≤ 0.006
- binding to plasma proteins (plasma proteins; in vitro): high binding
- impact of HI (albumin, ALP, ALT, AST, bilirubin changes) on unbound exposure (plasma proteins; visual assessment): did not appear to have an impact
- share of metabolism assigned to CYP3A4 (CYP3A4): 59%
- EORTC QLQ-C30 physical function score, average improvement from baseline ([2]; baseline to C2D1): 1.6
- EORTC QLQ-C30 role function score, average improvement from baseline ([2]; baseline to C2D1): 3.5
- EQ-VAS score, average improvement from baseline ([2]; baseline to Cycle 2, Day 1): 3.7
- EORTC QLQ-C30 Question C29 (overall health) score improvement ([2]; scale 1 to 7): 0.20
- EORTC QLQ-C30 Question C30 (overall quality of life) score improvement ([2]; scale 1 to 7): 0.28
- half-life [3]: ~840 min
